Measured values: patent publication US8013153B2, “Substituted pyrimidine kinase inhibitors” (Janssen Pharmaceutica, N.V., priority 2006, dated 2011)
Read-outs that look alike come from different tables or passages of the source.

What was measured:
[1] = system: HeLa cervical adenocarcinoma; test: Inhibition of in vitro cell proliferation (HeLa); type: cell-based, human; conditions: Homo sapiens, 14C-thymidine incorporation;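 note: cells exposed to compound for 24 h, then labelled 24 h with methyl 14C-thymidine, with uptake into DNA counted by scintillation against DMSO-only control wells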
[2] = biological target: T1, rat VEGF-R2 kinase domain (Rattus norvegicus, UniProt O08775); test: VEGF-R2 Screening Assay; type: biochemical
T1 construct: amino acids 786-1343 of the rat VEGF-R2 kinase domain; polyhistidine (N)
T1 sequence (O08775 786-1343): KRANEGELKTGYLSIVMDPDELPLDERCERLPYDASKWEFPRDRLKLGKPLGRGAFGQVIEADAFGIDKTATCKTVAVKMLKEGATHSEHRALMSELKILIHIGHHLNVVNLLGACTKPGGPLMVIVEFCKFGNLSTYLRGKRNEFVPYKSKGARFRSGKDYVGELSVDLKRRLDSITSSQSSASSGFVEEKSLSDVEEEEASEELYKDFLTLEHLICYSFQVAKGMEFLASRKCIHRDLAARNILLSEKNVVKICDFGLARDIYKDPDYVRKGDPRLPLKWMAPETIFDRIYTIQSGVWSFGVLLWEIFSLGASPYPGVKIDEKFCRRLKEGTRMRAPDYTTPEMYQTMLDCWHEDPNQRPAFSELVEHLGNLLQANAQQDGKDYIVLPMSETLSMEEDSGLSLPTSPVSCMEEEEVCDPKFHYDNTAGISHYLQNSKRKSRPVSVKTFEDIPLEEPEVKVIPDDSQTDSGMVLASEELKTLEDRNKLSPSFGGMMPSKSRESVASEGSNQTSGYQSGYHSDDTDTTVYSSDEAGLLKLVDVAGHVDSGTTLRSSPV

murine Aurora-A = biological target: T2, murine Aurora-A (Mus musculus, UniProt P97477); test: Aurora-A Screening Assay; type: biochemical
T2 construct: replaced with the full length protein encoding the murine Aurora-A; made in house; host or cells: sf9 insect cells
T2 sequence (P97477 1-395): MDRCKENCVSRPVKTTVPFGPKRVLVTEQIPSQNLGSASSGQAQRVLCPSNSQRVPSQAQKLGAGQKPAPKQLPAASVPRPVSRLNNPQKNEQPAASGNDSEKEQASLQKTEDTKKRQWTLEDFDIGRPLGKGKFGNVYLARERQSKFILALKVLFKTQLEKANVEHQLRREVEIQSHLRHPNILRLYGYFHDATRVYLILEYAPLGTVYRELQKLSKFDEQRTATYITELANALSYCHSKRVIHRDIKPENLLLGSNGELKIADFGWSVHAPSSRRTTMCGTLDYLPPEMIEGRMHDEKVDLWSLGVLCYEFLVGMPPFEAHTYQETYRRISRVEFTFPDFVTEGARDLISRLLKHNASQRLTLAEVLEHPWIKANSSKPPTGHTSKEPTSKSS
Method: (§1) A kinase reaction mixture was prepared containing 50 mM Tris-HCl pH=8, 10 mM MgCl2, 0.1 mM Na3PO4, 1 mM DTT, 10 μM ATP, 0.025 μM biotinylated histone-H1 peptide substrate and 0.2 μCuries per well ^33P-γ-ATP (2000-3000 Ci/mmol). 70 μL of the kinase reaction mixture was dispensed into the well of a streptavidin coated FlashPlate™ (Cat. # SMP103, NEN, Boston, Mass.). Then 1 μL of test compound stock in 100% DMSO was added to the wells resulting in a final concentration of 1% DMSO in the reaction with a 100 μL final reaction volume.
(§2) The CDK1:Cyclin-B protein was diluted in 50 mM Tris-HCl pH=8.0, 0.1% BSA at a concentration of 1 ng per μL and 30 μL (30 ng enzyme per test well) was added to each well to initiate the reaction. The reaction was incubated for one hour at 30° C. At the end of the 1 hour incubation, the reaction was terminated by aspirating the mixture from the plate and washing the wells twice with PBS containing 100 mM EDTA. The histone-H1 biotinylated peptide substrate became immobilized on the Flashplate™ and the incorporation of ^33P-γ-ATP was measured by reading the plate on a scintillation counter. Inhibition of the enzymatic activity of CDK1 was measured by observing a reduced amount of ^33P-γ-ATP incorporated into the immobilized peptide.
The Aurora-A kinase assay was carried out using the CDK kinase assay procedure except that the enzyme was replaced with the full length protein encoding the murine Aurora-A (Accession #GB BC014711) expressed and purified from sf9 insect cells.

HER2 cytoplasmic domain = biological target: T3, HER2 cytoplasmic domain (Homo sapiens, UniProt P04626); test: HER2 Kinase Screening Assay; type: biochemical; conditions: > means no observed 50% inhibition at the indicated test concentration; ~ means approximately 50% inhibition at that concentration
T3 construct: polyhistidine (N)
T3 sequence (P04626 676-1255 limits assumed): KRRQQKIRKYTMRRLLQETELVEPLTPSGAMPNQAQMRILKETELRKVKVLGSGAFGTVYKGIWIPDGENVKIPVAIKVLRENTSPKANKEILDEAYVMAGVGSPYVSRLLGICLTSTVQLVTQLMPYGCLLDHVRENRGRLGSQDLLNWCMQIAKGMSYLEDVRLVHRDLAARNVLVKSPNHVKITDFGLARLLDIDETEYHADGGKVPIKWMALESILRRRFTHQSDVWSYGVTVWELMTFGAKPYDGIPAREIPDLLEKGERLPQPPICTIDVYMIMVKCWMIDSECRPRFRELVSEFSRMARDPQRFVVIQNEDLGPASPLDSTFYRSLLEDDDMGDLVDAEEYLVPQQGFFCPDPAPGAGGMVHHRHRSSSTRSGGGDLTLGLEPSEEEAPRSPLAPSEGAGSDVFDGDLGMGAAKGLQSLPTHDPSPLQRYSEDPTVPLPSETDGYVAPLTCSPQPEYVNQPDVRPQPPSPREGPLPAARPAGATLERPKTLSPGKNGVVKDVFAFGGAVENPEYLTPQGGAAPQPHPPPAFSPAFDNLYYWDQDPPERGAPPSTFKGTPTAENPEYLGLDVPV
Method: as §1, §2
The HER2 kinase assay was carried out using the CDK kinase assay procedure except that the enzyme was replaced with a HER2 construct containing a polyhistidine tag at the N-terminus followed by 24 additional amino acids and the HER2 cytoplasmic domain beginning at amino acid 676 (Accession #M11730) to the end.

HCT-116 colon carcinoma = test: Inhibition of in vitro cell proliferation (HCT116); type: cell-based, human; conditions: Homo sapiens, HCT-116, 14C-thymidine incorporation;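 note: cells exposed to compound for 24 h, then 14C-thymidine added for a further 24 h and its uptake into DNA counted by scintillation, DMSO-only wells as control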
A375 malignant melanoma = test: Inhibition of in vitro cell proliferation (A375); type: cell-based, human; conditions: Homo sapiens, A-375, 14C-thymidine incorporation;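 note: cells plated for 24 h, given compound for 24 h, then labelled with 14C-thymidine for another 24 h, with DMSO-only wells as control and counts read by scintillation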
CDK1:Cyclin-B = biological target: T4, CDK1:Cyclin-B (Homo sapiens, UniProt P06493); test: CDK1 Screening Assay; type: biochemical
T4 construct: purchased New England Biolabs, Beverly, Mass; 6020; host or cells: insect cells
T4 sequence (P06493 whole entry): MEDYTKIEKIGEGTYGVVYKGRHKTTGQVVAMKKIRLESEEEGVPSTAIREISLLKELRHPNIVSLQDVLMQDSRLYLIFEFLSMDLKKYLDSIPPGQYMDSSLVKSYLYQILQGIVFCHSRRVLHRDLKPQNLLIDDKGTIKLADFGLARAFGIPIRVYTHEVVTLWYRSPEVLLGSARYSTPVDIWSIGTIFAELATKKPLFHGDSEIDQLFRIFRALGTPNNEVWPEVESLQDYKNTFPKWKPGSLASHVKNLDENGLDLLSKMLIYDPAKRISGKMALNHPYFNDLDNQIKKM
T4 sequence (P14635 whole entry partner): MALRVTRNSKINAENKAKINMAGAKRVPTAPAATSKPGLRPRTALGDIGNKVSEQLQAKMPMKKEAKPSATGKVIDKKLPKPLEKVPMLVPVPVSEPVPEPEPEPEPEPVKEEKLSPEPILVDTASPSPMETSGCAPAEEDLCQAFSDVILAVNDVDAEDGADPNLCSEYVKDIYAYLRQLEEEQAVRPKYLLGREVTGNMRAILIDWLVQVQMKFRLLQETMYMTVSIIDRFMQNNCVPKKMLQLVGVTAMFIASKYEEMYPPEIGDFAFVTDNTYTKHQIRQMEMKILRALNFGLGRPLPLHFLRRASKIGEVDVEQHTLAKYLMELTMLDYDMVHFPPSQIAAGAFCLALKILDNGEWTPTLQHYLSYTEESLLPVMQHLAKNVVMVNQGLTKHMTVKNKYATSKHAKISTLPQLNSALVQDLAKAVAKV
Method: as §1, §2
The CDK1 used was isolated from insect cells expressing both the human CDK1 catalytic subunit and its positive regulatory subunit cyclin B (New England Biolabs, Beverly, Mass., Cat. #6020).

[3] = > means no observed 50% inhibition at the indicated test concentration, ~ means approximately 50% inhibition at that concentration, read-out: IC50 VEGF-R2

SMILES	IC50 [1] [µM]	IC50 [2, 3] [µM]	IC50 (murine Aurora-A) [µM]	IC50 (HER2 cytoplasmic domain) [µM]	IC50 (HCT-116 colon carcinoma) [µM]	IC50 (A375 malignant melanoma) [µM]	IC50 (CDK1:Cyclin-B) [µM]	IC50 ([2]; IC50 VEGF-R2) [µM]
CON=Cc1c(N)ncnc1Oc1ccc(CC(=O)Nc2ccc(C)cc2)cc1 [Cpd 99, 2-{4-[6-amino-5-(methoxyimino-methyl)-pyrimidin-4-yloxy]-phenyl}-N-p-tolyl-acetamide]	> 100	0.008	> 100	0.217	> 100	> 100	> 100	
CON=Cc1c(N)ncnc1Oc1ccc(NC(=O)NC2CCCCC2)c(Cl)c1 [Cpd 65, 1-{4-[6-amino-5-(methoxyimino-methyl)-pyrimidin-4-yloxy]-2-chloro-phenyl}-3-cyclohexyl-urea]	> 100	0.0065	> 100	> 10	> 100	> 100	> 100	
CNC(=O)Nc1ccc(Oc2ncnc(N)c2C=NOC)c(Cl)c1 [Cpd 70, 1-{4-[6-amino-5-(methoxyimino-methyl)-pyrimidin-4-yloxy]-3-chloro-phenyl}-3-methyl-urea]	4.06	0.278	> 10	> 100	4.86	2.55	> 100	
CON=Cc1c(N)ncnc1Oc1ccc(NC(=O)Nc2cccc(C)c2)c(Cl)c1 [Cpd 76, 1-{4-[6-amino-5-(methoxyimino-methyl)-pyrimidin-4-yloxy]-2-chloro-phenyl}-3-m-tolyl-urea]	> 10	0.002	> 100	> 10	> 10	> 10	> 100	
Cc1cc2c(F)c(Oc3ncnc(N)c3C=NOCCCN3CCCCC3)ccc2[nH]1 [Cpd 20, 4-amino-6-(4-fluoro-2-methyl-1H-indol-5-yloxy)-pyrimidine-5-carbaldehyde O-(3-piperidin-1-yl-propyl)-oxime]	0.715	0.037	> 100	1.55	2.78	0.429	> 100	
CNC(=O)Nc1ccc(Oc2ncnc(N)c2C=NOC)cc1Br [Cpd 73, 1-{4-[6-amino-5-(methoxyimino-methyl)-pyrimidin-4-yloxy]-2-bromo-phenyl}-3-methyl-urea]	> 10	> 100	> 10	> 1	> 10	> 10	> 10	
CON=Cc1c(N)ncnc1Oc1ccc(NC(=O)Nc2ccccc2F)c(Cl)c1 [Cpd 56, 1-{4-[6-amino-5-(methoxyimino-methyl)-pyrimidin-4-yloxy]-2-chloro-phenyl}-3-(2-fluoro-phenyl)-urea]	> 10		> 100	> 10	> 10	> 10	> 100	0.0033
CON=Cc1c(N)ncnc1Oc1ccc(NC(=O)Nc2ncc(C)s2)c(Cl)c1 [Cpd 90, 1-{4-[6-amino-5-(methoxyimino-methyl)-pyrimidin-4-yloxy]-2-chloro-phenyl}-3-(5-methyl-thiazol-2-yl)-urea]	> 100	0.037	> 10	> 1	> 10	> 10	> 100	
CON=Cc1c(N)ncnc1Oc1ccc(NC(=O)Nc2ccncc2)c(Cl)c1 [Cpd 88, 1-{4-[6-amino-5-(methoxyimino-methyl)-pyrimidin-4-yloxy]-2-chloro-phenyl}-3-pyridin-4-yl-urea]	7.39		> 10	> 10	4.69	4.34	> 100	0.011
CON=Cc1c(N)ncnc1Oc1ccc2c(c1)cc(C)n2C(=O)NCCCCN1CCCC1 [Cpd 42, 5-[6-amino-5-(methoxyimino-methyl)-pyrimidin-4-yloxy]-2-methyl-indole-1-carboxylic acid (4-pyrrolidin-1-yl-butyl)-amide]	> 10	0.0542	> 100	> 10	> 10	> 1	> 100	
CON=Cc1c(N)ncnc1Oc1ccc(NC(=O)Nc2ccccc2Cl)c(Cl)c1 [Cpd 55, 1-{4-[6-amino-5-(methoxyimino-methyl)-pyrimidin-4-yloxy]-2-chloro-phenyl}-3-(2-chloro-phenyl)-urea]	> 10	0.0026	> 10	1.82	> 10	> 10	> 100	
CON=Cc1c(N)ncnc1Oc1ccc(NC(=O)Nc2ccccc2OC)c(Cl)c1 [Cpd 58, 1-{4-[6-amino-5-(methoxyimino-methyl)-pyrimidin-4-yloxy]-2-chloro-phenyl}-3-(2-methoxy-phenyl)-urea]	11.9	0.0025	> 100	1.7	8.19	5.06	> 100	
Cc1cc2c(F)c(Oc3ncnc(N)c3C=NOCC3CC3)ccc2[nH]1 [Cpd 32, 4-amino-6-(4-fluoro-2-methyl-1H-indol-5-yloxy)-pyrimidine-5-carbaldehyde O-cyclopropylmethyl-oxime]	0.324	0.046	> 100	> 100	0.333	0.07	> 100	
CON=Cc1c(N)ncnc1Oc1ccc(NC(=O)Nc2cccc(Cl)c2)c(Cl)c1 [Cpd 59, 1-{4-[6-amino-5-(methoxyimino-methyl)-pyrimidin-4-yloxy]-2-chloro-phenyl}-3-(3-chloro-phenyl)-urea]	> 10	0.003	> 100	> 1	> 10	> 10	> 100	
CON=Cc1c(N)ncnc1Oc1ccc(NC(=O)Nc2nccs2)c(Cl)c1 [Cpd 91, 1-{4-[6-amino-5-(methoxyimino-methyl)-pyrimidin-4-yloxy]-2-chloro-phenyl}-3-thiazol-2-yl-urea]	3.24	0.0034	> 10	> 1	3.04	0.929	> 100	
CON=Cc1c(N)ncnc1Oc1ccc(O)cc1 [Cpd 67, 4-amino-6-(4-hydroxy-phenoxy)-pyrimidine-5-carbaldehyde O-methyl-oxime]	3.99	4.36	17.8	13.1	2.95	3.22	> 100	
CCCNC(=O)Nc1ccc(Oc2ncnc(N)c2C=NOC)cc1Cl [Cpd 52, 1-{4-[6-amino-5-(methoxyimino-methyl)-pyrimidin-4-yloxy]-2-chloro-phenyl}-3-propyl-urea]	> 1		> 100	> 100	> 1	> 1	> 100	0.0275
CON=Cc1c(N)ncnc1Oc1ccc(NC(=O)NC2CC2)c(Cl)c1 [Cpd 85, 1-{4-[6-amino-5-(methoxyimino-methyl)-pyrimidin-4-yloxy]-2-chloro-phenyl}-3-cyclopropyl-urea]	> 100	0.029	> 100	> 100	> 100	> 10	> 100	
